Reference: the NIST ThermoML archive (doi:10.1016/j.jct.2014.06.001)
± gives the expanded uncertainty stated by the source.

Settings: for mass density: 293 K, 101.33 kPa, Pycnometric method; for vapor or sublimation pressure: Transpiration method

CCN1C(=O)CC(=O)N(CC)C1=S [1,3-diethyl-2-thiobarbituric acid]
mass density (Crystal): 1610 ± 20 kg/m3
vapor or sublimation pressure (327.3 K, Crystal): 0.00039 ± 3e-05 kPa
vapor or sublimation pressure (333.6 K, Crystal): 0.00074 ± 5e-05 kPa
vapor or sublimation pressure (337.7 K, Crystal): 0.0011 ± 8e-05 kPa
vapor or sublimation pressure (340 K, Crystal): 0.00135 ± 0.0001 kPa
vapor or sublimation pressure (343 K, Crystal): 0.00185 ± 0.00014 kPa
vapor or sublimation pressure (348 K, Crystal): 0.00293 ± 0.00022 kPa
vapor or sublimation pressure (349.1 K, Crystal): 0.0034 ± 0.00024 kPa
vapor or sublimation pressure (351 K, Crystal): 0.00384 ± 0.00028 kPa
vapor or sublimation pressure (353.3 K, Crystal): 0.00489 ± 0.00036 kPa
vapor or sublimation pressure (354.1 K, Crystal): 0.00551 ± 0.00041 kPa
vapor or sublimation pressure (355.3 K, Crystal): 0.00634 ± 0.00045 kPa
vapor or sublimation pressure (358.1 K, Crystal): 0.00756 ± 0.00055 kPa
vapor or sublimation pressure (362.4 K, Crystal): 0.01184 ± 0.00086 kPa
vapor or sublimation pressure (367.7 K, Crystal): 0.01865 ± 0.0014 kPa
vapor or sublimation pressure (368.6 K, Crystal): 0.02034 ± 0.0015 kPa
vapor or sublimation pressure (370.7 K, Crystal): 0.02408 ± 0.0017 kPa
vapor or sublimation pressure (372.2 K, Crystal): 0.02684 ± 0.0019 kPa
vapor or sublimation pressure (375.7 K, Crystal): 0.03524 ± 0.0025 kPa
vapor or sublimation pressure (375.9 K, Crystal): 0.03465 ± 0.0024 kPa

CCN1C(=O)CC(=O)N(CC)C1=O [1,3-diethylbarbituric acid]
mass density (Crystal): 1320 ± 20 kg/m3
vapor or sublimation pressure (328.9 K, Liquid): 0.00282 ± 0.00021 kPa
vapor or sublimation pressure (333.8 K, Liquid): 0.00441 ± 0.00032 kPa
vapor or sublimation pressure (339.1 K, Liquid): 0.00675 ± 0.00048 kPa
vapor or sublimation pressure (346 K, Liquid): 0.0115 ± 0.00082 kPa
vapor or sublimation pressure (351.2 K, Liquid): 0.01744 ± 0.0012 kPa
vapor or sublimation pressure (356.2 K, Liquid): 0.02535 ± 0.0018 kPa
vapor or sublimation pressure (360.3 K, Liquid): 0.03131 ± 0.0022 kPa
vapor or sublimation pressure (366 K, Liquid): 0.04999 ± 0.0036 kPa
vapor or sublimation pressure (371.3 K, Liquid): 0.07142 ± 0.005 kPa
vapor or sublimation pressure (376.8 K, Liquid): 0.09721 ± 0.0069 kPa
vapor or sublimation pressure (380.7 K, Liquid): 0.1327 ± 0.0094 kPa
